Reference: ChEMBL document CHEMBL3885861, “Open TG-GATES”

Organism: Rattus norvegicus
Test: Open TG-GATES - Regimen: Daily Repeat
Assay type: toxicity, organism-based, Sprague-Dawley
Parameters: regimen Daily Repeat, gender Male, age 6 weeks
Details: in vivo, po, 0 mg/kg, […], route gavage, dose level Control; for KIDNEY_L / KIDNEY_R / KIDNEY_TOTAL: tissue Kidney; for LIVER: tissue Liver; for A/G / ALP / ALT / AST / BUN / CRE / Ca / Cl / DBIL / GLC / IP / LDH / Na / PL / RALB / TBIL / TC / TG / TP / gamma-GTP: tissue Plasma

`NC(N)=Nc1nc(CSCCC(N)=NS(N)(=O)=O)cs1` [FAMOTIDINE] was tested, and the Ht (tissue Blood, time 28 day) was 43.5%, the Lym (tissue Blood, time 28 day) was 80.8% and the MCH (tissue Blood, time 28 day) was 20 pg. It also gave an MCHC (tissue Blood, time 28 day) of 35.3%, an MCV (tissue Blood, time 28 day) of 56.6 fL and a Mono (tissue Blood, time 28 day) of 2.2%. For the same compound, the Neu (tissue Blood, time 28 day) was 14.6%, the PT (tissue Blood, time 28 day) was 12.2 s and the Plat (tissue Blood, time 28 day) was 98.4 x10_4/uL. For the same compound, the RBC (tissue Blood, time 28 day) was 769 x10_4/ul, the Ret (tissue Blood, time 28 day) was 2.3% and the WBC (tissue Blood, time 28 day) was 84.1 x10_2/uL. It also gave a KIDNEY_L (time 7 day) of 1.1 g, a KIDNEY_R (time 7 day) of 1.1 g and a KIDNEY_TOTAL (time 7 day) of 2.2 g. It also gave a KIDNEY_L (time 14 day) of 1.3 g, a KIDNEY_R (time 14 day) of 1.2 g and a KIDNEY_TOTAL (time 14 day) of 2.5 g. The KIDNEY_L (time 28 day) was 1.4 g, the KIDNEY_R (time 28 day) was 1.4 g and the KIDNEY_TOTAL (time 28 day) was 2.8 g. It also gave an LIVER (time 7 day) of 12.2 g, an LIVER (time 14 day) of 14 g and an LIVER (time 28 day) of 15.1 g. The A/G (time 7 day) was 1.5, the ALP (time 7 day) was 1109 IU/L and the ALT (time 7 day) was 39.6 IU/L. It also gave an AST (time 7 day) of 71.4 IU/L, a BUN (time 7 day) of 16.6 mg/dL and a CRE (time 7 day) of 0.4 mg/dL. It also gave a Ca (time 7 day) of 10.7 mg/dL, a Cl (time 7 day) of 102.8 meq/L and a DBIL (time 7 day) of 0.094 mg/dL. For the same compound, the GLC (time 7 day) was 200.6 mg/dL, the IP (time 7 day) was 7.5 mg/dL and the LDH (time 7 day) was 176.2 IU/L. It also gave a Na (time 7 day) of 140.6 meq/L, a PL (time 7 day) of 156.6 mg/dL and an RALB (time 7 day) of 3.5 g/dL. For the same compound, the TBIL (time 7 day) was 0.2 mg/dL, the TC (time 7 day) was 78 mg/dL and the TG (time 7 day) was 101.8 mg/dL. For the same compound, the TP (time 7 day) was 5.7 g/dL, the gamma-GTP (time 7 day) was 0.8 IU/L and the A/G (time 14 day) was 1.5. The ALP (time 14 day) was 794.6 IU/L, the ALT (time 14 day) was 33.4 IU/L and the AST (time 14 day) was 62 IU/L. For the same compound, the BUN (time 14 day) was 15.8 mg/dL, the CRE (time 14 day) was 0.5 mg/dL and the Ca (time 14 day) was 10.8 mg/dL. For the same compound, the Cl (time 14 day) was 103.2 meq/L, the DBIL (time 14 day) was 0.096 mg/dL and the GLC (time 14 day) was 208 mg/dL. For the same compound, the IP (time 14 day) was 7.2 mg/dL, the LDH (time 14 day) was 153.2 IU/L and the Na (time 14 day) was 140.4 meq/L. For the same compound, the PL (time 14 day) was 146.6 mg/dL, the RALB (time 14 day) was 3.4 g/dL and the TBIL (time 14 day) was 0.2 mg/dL. The TC (time 14 day) was 75 mg/dL, the TG (time 14 day) was 96.4 mg/dL and the TP (time 14 day) was 5.7 g/dL. For the same compound, the gamma-GTP (time 14 day) was 1.4 IU/L, the A/G (time 28 day) was 1.3 and the ALP (time 28 day) was 664.6 IU/L. The ALT (time 28 day) was 32.4 IU/L, the AST (time 28 day) was 59 IU/L and the BUN (time 28 day) was 18.6 mg/dL. The CRE (time 28 day) was 0.6 mg/dL, the Ca (time 28 day) was 10.2 mg/dL and the Cl (time 28 day) was 103.6 meq/L. The DBIL (time 28 day) was 0.07 mg/dL, the GLC (time 28 day) was 217.4 mg/dL and the IP (time 28 day) was 6.7 mg/dL. It also gave an LDH (time 28 day) of 123 IU/L, a Na (time 28 day) of 141 meq/L and a PL (time 28 day) of 141.8 mg/dL. It also gave an RALB (time 28 day) of 3.5 g/dL, a TBIL (time 28 day) of 0.1 mg/dL and a TC (time 28 day) of 74.6 mg/dL. The TG (time 28 day) was 82.8 mg/dL, the TP (time 28 day) was 6.1 g/dL and the gamma-GTP (time 28 day) was 1 IU/L.
